Residues, ends and D or L forms follow the SMILES beside them. *: point of attachment. Cbz = O=C(OCc1ccccc1)*
Columns and labels:
[1] = target: Cathepsin S (Homo sapiens, UniProt P25774)
Description: Apparent inhibitory constant against human cathepsin S

[2] = target: T1, Cathepsin K (Homo sapiens, UniProt P43235); assay: Apparent inhibitory constant against human cathepsin K; settings: read-out: Ki app
T1 sequence (P43235 whole entry): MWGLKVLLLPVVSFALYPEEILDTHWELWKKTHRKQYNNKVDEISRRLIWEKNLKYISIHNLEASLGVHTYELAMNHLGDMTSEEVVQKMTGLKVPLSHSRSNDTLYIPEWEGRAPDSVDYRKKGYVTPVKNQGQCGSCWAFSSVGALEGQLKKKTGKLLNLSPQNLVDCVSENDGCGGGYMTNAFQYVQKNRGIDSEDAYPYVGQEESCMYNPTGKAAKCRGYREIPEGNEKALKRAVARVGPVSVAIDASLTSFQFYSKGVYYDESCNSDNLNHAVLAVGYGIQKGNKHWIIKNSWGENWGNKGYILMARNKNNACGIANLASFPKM

[3] = target: Cathepsin B (Homo sapiens, UniProt P07858); assay: Apparent inhibitory constant against human cathepsin B; settings: read-out: Ki app
[4] = target: Procathepsin L (Homo sapiens, UniProt P07711); assay: Apparent inhibitory constant against human cathepsin L; settings: read-out: Ki app
Chain of Procathepsin L (P07711 whole entry): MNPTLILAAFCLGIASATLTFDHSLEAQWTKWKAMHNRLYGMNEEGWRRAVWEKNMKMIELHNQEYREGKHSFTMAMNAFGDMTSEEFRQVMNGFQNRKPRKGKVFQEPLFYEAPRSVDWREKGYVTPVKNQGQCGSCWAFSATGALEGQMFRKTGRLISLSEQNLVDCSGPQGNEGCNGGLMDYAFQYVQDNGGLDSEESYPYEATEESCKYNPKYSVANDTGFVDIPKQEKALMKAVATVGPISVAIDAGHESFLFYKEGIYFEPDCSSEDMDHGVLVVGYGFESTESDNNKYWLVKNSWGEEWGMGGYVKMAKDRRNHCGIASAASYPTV

Chain of Cathepsin S (P25774 whole entry): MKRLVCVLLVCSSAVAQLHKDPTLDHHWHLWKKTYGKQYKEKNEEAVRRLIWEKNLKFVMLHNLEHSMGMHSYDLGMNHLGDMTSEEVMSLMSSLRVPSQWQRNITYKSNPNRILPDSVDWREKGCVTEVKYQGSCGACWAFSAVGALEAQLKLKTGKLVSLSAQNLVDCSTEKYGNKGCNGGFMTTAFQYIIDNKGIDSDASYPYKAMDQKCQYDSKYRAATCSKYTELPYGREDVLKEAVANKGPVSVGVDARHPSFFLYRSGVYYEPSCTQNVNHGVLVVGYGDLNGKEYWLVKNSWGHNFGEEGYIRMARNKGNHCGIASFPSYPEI

## CC(C)C[C@H](NC(=O)c1cccc2cccnc12)C(=O)N[C@H]1CCCN(S(=O)(=O)c2ccccn2)CC1=O
[1]
  Ki: 41 nM
[2]
  Ki: 52 nM
[3]
  Ki: > 1000 nM
[4]
  Ki: 8.2 nM

## O=C(N[C@@H](Cc1ccccc1)C(=O)N[C@H]1CCCN(S(=O)(=O)c2ccccn2)CC1=O)c1cc2ccccc2o1
[1]
  Ki: 8.9 nM
[2]
  Ki: 10.5 nM
[3]
  Ki: 193 nM
[4]
  Ki: 1.7 nM

## CC(C)C[C@H](NC(=O)c1ccc2ccccc2n1)C(=O)N[C@H]1CCCN(S(=O)(=O)c2ccccn2)CC1=O
[1]
  Ki: 27 nM
[2]
  Ki: 0.89 nM
[3]
  Ki: 740 nM
[4]
  Ki: 5 nM

## O=C(N[C@@H](Cc1ccc2ccccc2c1)C(=O)N[C@H]1CCCN(S(=O)(=O)c2ccccn2)CC1=O)c1cccc2ccccc12
[1]
  Ki: 15.6 nM
[2]
  Ki: > 10000 nM
[3]
  Ki: 150 nM
[4]
  Ki: 0.43 nM

## CC(C)C[C@H](NC(=O)c1cccc2ccccc12)C(=O)N[C@H]1CCCN(S(=O)(=O)c2ccccn2)CC1=O
[1]
  Ki: 5.7 nM
[2]
  Ki: 12 nM
[4]
  Ki: 1.4 nM

## O=C(N[C@@H](Cc1ccc2ccccc2c1)C(=O)N[C@H]1CCCN(S(=O)(=O)c2ccccn2)CC1=O)c1cc2ccccc2o1
[1]
  Ki: 3.1 nM
[2]
  Ki: 295 nM
[3]
  Ki: 24 nM
[4]
  Ki: 0.57 nM

## O=C[C@H](Cc1ccc(O)cc1)NC(=O)[C@H](Cc1ccccc1)NC(=O)OCc1ccccc1 (Cbz-Phe-Tyr-aldehyde)
[1]
  Ki: 0.26 nM
[2]
  Ki: 0.74 nM
[4]
  Ki: 0.47 nM

Reference: ChEMBL document CHEMBL1140373, “Azepanone-based inhibitors of human cathepsin L” (J Med Chem, 2005)
